Data taken from ChEMBL document CHEMBL1123035, “Synthesis and LSD-like discriminative stimulus properties in a series of N(6)-alkyl norlysergic acid N,N-diethylamide derivatives” (J Med Chem, 1985).

What was measured:
Rattus norvegicus [1] = experiment: Number of rats scored LSD correct/number tested was reported at a dose of 3.710 uM/kg using 2-lever drug discrimination assay; complete generalisation did not occur at the highest dose used; assay type: ADME, organism-based; details: in vivo
Rattus norvegicus [2] = experiment: Number of rats scored LSD correct/number tested was reported at a dose of 93 nM/Kg using 2-lever drug discrimination assay; 6/8; assay type: functional
Rattus norvegicus [3] = experiment: Number of rats scored LSD correct/number tested was reported at a dose of 23 nM/Kg using 2-lever drug discrimination assay; 2/8; assay type: functional
Rattus norvegicus [4] = species: Rattus norvegicus; experiment: Effective dose at which 50% of the rats tested selected the LSD-appropriate lever was reported; 0.019-0.071; assay type: functional
Rattus norvegicus [5] = species: Rattus norvegicus; experiment: Potency ratio was obtained using a 3 point x 3 point parallel-line bioassay for quantal data and reflects the potency relative to LSD; 1.62-0.62; assay type: functional
Rattus norvegicus [6] = experiment: Number of rats scored LSD correct/number tested was reported at a dose of 11.5 nM/Kg using 2-lever drug discrimination assay; 2/8; assay type: functional
Rattus norvegicus [7] = experiment: Number of rats scored LSD correct/number tested was reported at a dose of 185 nM/kg using 2-lever drug discrimination assay; 8/8; assay type: functional
Rattus norvegicus [8] = experiment: Number of rats scored LSD correct/number tested was reported at a dose of 46.5 nM/Kg using 2-lever drug discrimination assay; 4/8; assay type: functional
Rattus norvegicus [9] = experiment: Number of rats scored LSD correct/number tested was reported at a dose of 93 nM/kg using 2-lever drug discrimination assay; 1/8; assay type: functional
Rattus norvegicus [10] = experiment: Number of rats scored LSD correct/number tested was reported at a dose of 371 nM/kg using 2-lever drug discrimination assay; 3/8; assay type: functional
Rattus norvegicus [11] = experiment: Number of rats scored LSD correct/number tested was reported at a dose of 46.5 nM/kg using 2-lever drug discrimination assay; 0/8; assay type: functional
Rattus norvegicus [12] = experiment: Number of rats scored LSD correct/number tested was reported at a dose of 185.5 nM/kg using 2-lever drug discrimination assay; 1/8; assay type: functional
Rattus norvegicus [13] = species: Rattus norvegicus; experiment: Effective dose at which 50% of the rats tested selected the LSD-appropriate lever was reported; 0.209-0.610; assay type: functional
Rattus norvegicus [14] = experiment: Number of rats scored LSD correct/number tested was reported at a dose of 742 nM/kg using 2-lever drug discrimination assay; 7/8; assay type: functional
Rattus norvegicus [15] = species: Rattus norvegicus; experiment: Potency ratio was obtained using a 3 point x 3 point parallel-line bioassay for quantal data and reflects the potency relative to LSD; 0.21-0.08; assay type: functional
Rattus norvegicus [16] = experiment: Number of rats scored LSD correct/number tested was reported at a dose of 11.5 nM/Kg using 2-lever drug discrimination assay; 3/8; assay type: functional
Rattus norvegicus [17] = species: Rattus norvegicus; experiment: Effective dose at which 50% of the rats tested selected the LSD-appropriate lever was reported; 0.010-0.041; assay type: functional
Rattus norvegicus [18] = experiment: Number of rats scored LSD correct/number tested was reported at a dose of 5.75 nM/Kg using 2-lever drug discrimination assay; 2/8; assay type: functional
Rattus norvegicus [19] = experiment: Number of rats scored LSD correct/number tested was reported at a dose of 46.5 nM/Kg using 2-lever drug discrimination assay; 5/8; assay type: functional
Rattus norvegicus [20] = experiment: Number of rats scored LSD correct/number tested was reported at a dose of 93 nM/Kg using 2-lever drug discrimination assay; 8/8; assay type: functional
Rattus norvegicus [21] = experiment: Number of rats scored LSD correct/number tested was reported at a dose of 23.0 nM/Kg using 2-lever drug discrimination assay; 3/8; assay type: functional
Rattus norvegicus [22] = species: Rattus norvegicus; experiment: Potency ratio was obtained using a 3 point x 3 point parallel-line bioassay for quantal data and reflects the potency relative to LSD; 2.63-1.00; assay type: functional
Rattus norvegicus [23] = experiment: Number of rats scored LSD correct/number tested was reported at a dose of 93 nM/kg using 2-lever drug discrimination assay; 3/8; assay type: functional
Rattus norvegicus [24] = species: Rattus norvegicus; experiment: Potency ratio was obtained using a 3 point x 3 point parallel-line bioassay for quantal data and reflects the potency relative to LSD; 0.66-0.25; assay type: functional
Rattus norvegicus [25] = experiment: Number of rats scored LSD correct/number tested was reported at a dose of 371 nM/kg using 2-lever drug discrimination assay; 8/8; assay type: functional
Rattus norvegicus [26] = experiment: Number of rats scored LSD correct/number tested was reported at a dose of 23 nM/Kg using 2-lever drug discrimination assay; 1/8; assay type: functional
Rattus norvegicus [27] = experiment: Number of rats scored LSD correct/number tested was reported at a dose of 185.5 nM/Kg using 2-lever drug discrimination assay; 5/8; assay type: functional
Rattus norvegicus [28] = species: Rattus norvegicus; experiment: Effective dose at which 50% of the rats tested selected the LSD-appropriate lever was reported; 0.052-0.186; assay type: functional
Rattus norvegicus [29] = experiment: Number of rats scored LSD correct/number tested was reported at a dose of 46.5 nM/Kg using 2-lever drug discrimination assay; 2/8; assay type: functional
Rattus norvegicus [30] = experiment: Number of rats scored LSD correct/number tested was reported at a dose of 0.742 uM/kg using 2-lever drug discrimination assay; complete generalisation did not occur at the highest dose used; assay type: ADME, organism-based; details: in vivo
Rattus norvegicus [31] = species: Rattus norvegicus; experiment: Potency ratio was obtained using a 3 point x 3 point parallel-line bioassay for quantal data and reflects the potency relative to LSD; 3.27-1.24; assay type: functional
Rattus norvegicus [32] = experiment: Number of rats scored LSD correct/number tested was reported at a dose of 5.75 nM/kg using 2-lever drug discrimination assay; 3/8; assay type: functional
Rattus norvegicus [33] = species: Rattus norvegicus; experiment: Effective dose at which 50% of the rats tested selected the LSD-appropriate lever was reported; 0.006-0.027; assay type: functional
Rattus norvegicus [34] = experiment: Number of rats scored LSD correct/number tested was reported at a dose of 93 nM/kg using 2-lever drug discrimination assay; 8/8; assay type: functional
Rattus norvegicus [35] = experiment: Number of rats scored LSD correct/number tested was reported at a dose of 11.5 nM/kg using 2-lever drug discrimination assay; 4/8; assay type: functional
Rattus norvegicus [36] = experiment: Number of rats scored LSD correct/number tested was reported at a dose of 46.5 nM/kg using 2-lever drug discrimination assay; 6/8; assay type: functional
Rattus norvegicus [37] = experiment: Number of rats scored LSD correct/number tested was reported at a dose of 23 nM/kg using 2-lever drug discrimination assay; 4/8; assay type: functional
Rattus norvegicus [38] = species: Rattus norvegicus; experiment: Effective dose at which 50% of the rats tested selected the LSD-appropriate lever was reported; 0.029-0.072; assay type: functional
Rattus norvegicus [39] = species: Rattus norvegicus; experiment: Potency ratio was obtained using a 3 point x 3 point parallel-line bioassay for quantal data and reflects the potency relative to LSD; assay type: functional
Rattus norvegicus [40] = experiment: Number of rats scored LSD correct/number tested was reported at a dose of 11.5 nM/Kg using 2-lever drug discrimination assay; 0/8; assay type: functional
Rattus norvegicus [41] = experiment: Number of rats scored LSD correct/number tested was reported at a dose of 93.0 nM/Kg using 2-lever drug discrimination assay; 6/8; assay type: functional
Rattus norvegicus [42] = experiment: Number of rats scored LSD correct/number tested was reported at a dose of 185.5 nM/Kg using 2-lever drug discrimination assay; 8/8; assay type: functional

CCN(CC)C(=O)[C@@H]1C=C2c3cccc4[nH]cc(c34)C[C@H]2NC1
Activity (Rattus norvegicus [1]): 50%

CCCN1C[C@H](C(=O)N(CC)CC)C=C2c3cccc4[nH]cc(c34)C[C@H]21
Activity (Rattus norvegicus [2]): 6
Activity (Rattus norvegicus [3]): 2
ED50 (Rattus norvegicus [4]): 0.037 µg/kg
Potency ratio (Rattus norvegicus [5]): 1
Activity (Rattus norvegicus [6]): 2
Activity (Rattus norvegicus [7]): 8
Activity (Rattus norvegicus [8]): 4

CCCCN1C[C@H](C(=O)N(CC)CC)C=C2c3cccc4[nH]cc(c34)C[C@H]21
Activity (Rattus norvegicus [9]): 1
Activity (Rattus norvegicus [10]): 3
Activity (Rattus norvegicus [11]): 0
Activity (Rattus norvegicus [12]): 1
ED50 (Rattus norvegicus [13]): 0.357 µg/kg
Activity (Rattus norvegicus [14]): 7
Potency ratio (Rattus norvegicus [15]): 0.13

CCN(CC)C(=O)[C@@H]1C=C2c3cccc4[nH]cc(c34)C[C@H]2N(CC)C1
Activity (Rattus norvegicus [16]): 3
ED50 (Rattus norvegicus [17]): 0.02 µg/kg
Activity (Rattus norvegicus [18]): 2
Activity (Rattus norvegicus [19]): 5
Activity (Rattus norvegicus [20]): 8
Activity (Rattus norvegicus [21]): 3
Potency ratio (Rattus norvegicus [22]): 1.63

CCN(CC)C(=O)[C@@H]1C=C2c3cccc4[nH]cc(c34)C[C@H]2N(C(C)C)C1
Activity (Rattus norvegicus [23]): 3
Potency ratio (Rattus norvegicus [24]): 0.41
Activity (Rattus norvegicus [25]): 8
Activity (Rattus norvegicus [26]): 1
Activity (Rattus norvegicus [27]): 5
ED50 (Rattus norvegicus [28]): 0.1 µg/kg
Activity (Rattus norvegicus [29]): 2

CCN(CC)C(=O)[C@@H]1C=C2c3cccc4[nH]cc(c34)C[C@H]2N(CCc2ccccc2)C1
Activity (Rattus norvegicus [30]): 25%

C=CCN1C[C@H](C(=O)N(CC)CC)C=C2c3cccc4[nH]cc(c34)C[C@H]21
Potency ratio (Rattus norvegicus [31]): 2.01
Activity (Rattus norvegicus [32]): 3
ED50 (Rattus norvegicus [33]): 0.013 µmol/kg
Activity (Rattus norvegicus [34]): 8
Activity (Rattus norvegicus [35]): 4
Activity (Rattus norvegicus [36]): 6
Activity (Rattus norvegicus [37]): 4

CCN(CC)C(=O)[C@@H]1C=C2c3cccc4[nH]cc(c34)C[C@H]2N(C)C1 [LYSERGIDE]
Activity (Rattus norvegicus [3]): 2
ED50 (Rattus norvegicus [38]): 0.046 µg/kg
Potency ratio (Rattus norvegicus [39]): 1
Activity (Rattus norvegicus [40]): 0
Activity (Rattus norvegicus [41]): 6
Activity (Rattus norvegicus [42]): 8
Activity (Rattus norvegicus [8]): 4
